{"source": "patent US9446145B2", "about": "“Curcumin-antibody conjugates as anti-cancer agents” (priority 2009, dated 2016)", "key": {"B16F10 melanoma cells": {"system": "B16F10 melanoma cells", "assay": "B16F10 melanoma cell death IC50 (live cell counts 24 h after treatment)", "format": "cell-based", "settings": "Mus musculus, B16-F10, 24 h, free/solubilized curcumin, read-out: IC50 (concentration required for 50% B16F10 melanoma cell death)", "description": "(§1) B16F10 melanoma cells were plated in a 96-well tissue culture plate with 2,000 cells in 50 μl of medium (DMEM+10% fetal bovine serum+1% penicillin-streptomycin) per well. After 24 hours, the targeted curcumin derivative (linked to 633 dye) was administered in a range of concentrations-10 nM, 20 nM, 30 nM, 50 nM, 100 nM. The product was diluted in neurobasal medium (+1% penicillin-streptomycin, 1% 1-glutamine, 2% B27 supplement), with 50 μl per well, and 2 wells per concentration. Control wells were treated with corresponding concentrations of free MUC18 antibody coupled to 633 dye. The plate was imaged after 24 hours using visible light and fluorescent microscopes. Using cell counts from four frames per well, the mean live cell number and mean standard deviation for each concentration (and its corresponding control) were found. The data was compiled and graphed on Kaleida Graph. […] See below. Each corresponding control well received the same amount of curcumin-free Mel-CAM-Dylight800.\nDetermined using same methods as step 1a. Dilution of 100 nM, 200 nM, 300 nM, 400 nM, 500 nM, 1 μM, 10 μM, 20 μM, 30 μM, 40 μM, and 50 μM were made using a 40 mM stock solution of curcumin in DMSO. Curcumin IC50 was compared to curc-MUC18 IC50 using Kaleida Graph."}, "GL261 glioblastoma cells": {"system": "GL261 glioblastoma cells", "assay": "GL261 glioblastoma cell killing IC50 (same approach as for B16F10)", "format": "cell-based", "settings": "Mus musculus, solubilized non-targeted curcumin", "description": "as §1\nThe same approach used for the B16F10 melanoma cells (see above) was next used for the glioblastoma GL261 cells by attaching curcumin to an antibody against the […] antigen, which is expressed on the surface of grade III/IV glioblastoma (Strik, H. M., et al., Galectin-3: Cellular Distribution and Correlation with WHO-grade in Human Gliomas. Journal of Neuro-Oncology, 53(1): p. 13-20 (2001)). […]"}}}
{"molecule": "COc1cc(C=CC(=O)CC(=O)C=Cc2ccc(O)c(OC)c2)ccc1O", "note": "[curcumin, 1,7-bis(4-hydroxy-3-methoxyphenyl)-1,6-heptadiene-3,5-dione]", "values": [{"measurement": "IC50", "setting": "B16F10 melanoma cells", "value": 15, "unit": "µM"}, {"measurement": "IC50", "setting": "GL261 glioblastoma cells", "value": 10, "unit": "µM"}]}
